Consider one sequence from patent publication US20100297157A1, “VACCINE THERAPY FOR CHOROIDAL NEOVASCULARIZATION” (priority 2007, published 2010).

In assay [1] the test system is CNV lesions. Nature of the assay: Measurement of the CNV size by choroidal flat mount. The format is in vivo, mice expressing human HLA-A*0201. The protocol: (§1) C57bl/6 mice with body weight of 20 g to 25 g were obtained from CLEA Japan (Tokyo, Japan). All experiments were conducted in accordance with the Animal Care and Use Committee and the Statement for the Use of Animals in Ophthalmic and Vision Research by the Association for Research in Vision and Opthalmology. Mice used in the experiments express human HLA-A*0201.
(§2) The mice were separated into three groups. PBS, an immunity adjuvant (incomplete Freund's adjuvant (IFA)), or a suspension of a human VEGF receptor 2-derived antigenic peptide and IFA was injected subcutaneously into the axillae twice (day 0 and day 10). […] Subsequently, on day 20, CNV was induced at three sites in both eyes using a semiconductor laser set to φ 200 μm, 200 mW, and 0.02 seconds.
(§3) Experimental CNV was induced as described elsewhere with minor modifications. In short, general anesthesia was induced with an intraperitoneal injection (1 mL/kg) of a mixture (1:1) of ketamine hydrochloride (Ketalar®, Sankyo, Tokyo, Japan) and xylazine hydrochloride (Celactal®, Bayer, Tokyo, Japan). The pupil was dilated using one drop of 0.5% tropicamide (Mydrin® M, Santen Pharmaceutical, Osaka, Japan) for photocoagulation. Six laser photocoagulations were applied to each eye between the major retinal vessels around the optic disc with a diode laser photocoagulator (DC-3000®, NIDEK, Osaka, Japan) and a slit lamp delivery system (SL150, Topcon, Tokyo, Japan) at a spot size of […], duration of 0.02 seconds, and intensity of 200 mW.
A total of 36 mice were used for choroidal flat mount analysis (the number of mice from each group on the third day and the seventh day was 4 and 8, respectively). Three days and seven days after laser treatment, the size of CNV lesion was evaluated using choroidal flat mounts as previously described. The mice were anesthetized and perfused with 1 mL of phosphate buffered saline (PBS) containing 50 mg/mL FITC-conjugated dextran (4.4 kDa, 50 mg/kg body weight; Sigma). Then, the eyes were enucleated, and the cornea and lens were removed, and the entire retina was carefully dissected from the eye cup. Radial cuts were made from the edges of the equator, and the eyecup was flat-mounted on a glass slide with the sclera facing down. The flat-mounted sections were observed under a fluorescence microscope (Olympus DPSO), and the images were captured using a CCD camera. The data were imported into a computer using a software system (Studio lite). […] The data were expressed as mean±standard error.
(§4) The fluorescein fluorescent fundus angiography scores were evaluated using Mann-Whitney U test. The size of CNV lesion was evaluated by ANOVA followed by Dunnett's post hoc test. […]

Assay [2] relates to CNV lesions. Nature of the assay: Evaluation of the grade of CNV by fluorescein angiography (leakage from laser-induced CNV lesions). It is filed as in vivo, mice expressing human HLA-A*0201. The protocol: as §1, §2, §3
Three and seven days after CNV induction (on day 23 and day 27), a total of 169 animals were used to examine the effect on leakage from the CNV lesions (on the third day, the number of animals from the control group, low-dose group, and high-dose group was 41, 34, and 18, respectively; on the seventh day, the number of animals from the control group, low-dose group, and high-dose group was 51, 15, and 10, respectively). […]
as §4

Another assay has as its system tumor model. The following applies: cited from earlier work.
A further assay has as its system VEGF. Kind of assay: VEGF up-regulation in experimental CNV. Particulars: in vivo.
[3] abbreviates: seventh day, low-dose group vs control group.

For the sequence “VIAMFFWLL (IFA emulsion; listed as Homo sapiens) [nine amino acids from position 773 of human VEGFR-2; injected as a suspension with IFA]”, in the assay with CNV lesions [1] (in vivo, effect observed only on the seventh day and not on the third day), the CNV growth entry is given as “inhibits CNV growth”. Besides, the CNV lesion size result with CNV lesions [1] (seventh day, high-dose group vs control group) is given as “significantly decreased”; with CNV lesions [1] (setting [3]), “significantly decreased”; in the assay on CNV lesions [1] (third day, low-dose and high-dose groups vs control group), “No difference was observed”. In addition, the “fluorescein leakage from the CNV lesions” value in the assay on CNV lesions [2] (seventh day, high-dose group vs control) is reported as “lower”. Further, in the assay on CNV lesions [2] (setting [3]), the “leakage from CNV lesions” value was “not statistically significant, the leakage from CNV lesions was lower”. Moreover, in the assay on CNV lesions [2] (third day after CNV induction, low-dose and high-dose groups vs control group, s.c. injection day 0 and day 10), the “degree of fluorescein leakage from CNV lesions” value is listed as “no difference was observed”. Besides, the antiangiogenic effect result with tumor model is “confirmed to have antiangiogenic effect”. Besides, the VEGF up-regulation result in the assay on VEGF is listed as “suppresses VEGF up-regulation”.
